Assay results published in patent US12077503B2, “Substituted cyclic amides and their use as herbicides” (FMC CORPORATION, priority 2015, dated 2024).

Legend:
Format in all cases: in vivo
[1] = tested on: Kochia (Kochia scoparia); assay: Test A preemergence
Procedure, shortened: (§1)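 Preemergence directed soil spray on seeded pots, or postemergence application to plants 2–10 cm, one- to two-leaf. Solvent mixture non-phytotoxic, with surfactant. Scored ~10 d later, visually, 0–100 vs untreated.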

[2] = tested on: barnyardgrass (Echinochloa crus-galli); assay: Test A preemergence
Procedure, shortened: as §1

[3] = tested on: giant foxtail (Setaria faberii); assay: Test A preemergence
Procedure, shortened: as §1

[4] = tested on: pigweed (Amaranthus retroflexus); assay: Test A preemergence
[5] = tested on: ragweed (common ragweed, Ambrosia elatior); assay: Test A preemergence
Procedure, shortened: as §1

[6] = tested on: ryegrass, Italian (Italian ryegrass, Lolium multiflorum); assay: Test A preemergence
Procedure, shortened: as §1

[7] = tested on: Galium (catchweed bedstraw, Galium aparine); assay: Test A postemergence
Procedure, shortened: as §1

[8] = tested on: Kochia (Kochia scoparia); assay: Test A postemergence
Procedure, shortened: as §1

[9] = tested on: barnyardgrass (Echinochloa crus-galli); assay: Test A postemergence
Procedure, shortened: as §1

[10] = tested on: blackgrass (Alopecurus myosuroides); assay: Test A postemergence
Procedure, shortened: as §1

[11] = tested on: corn (Zea mays); assay: Test A postemergence
Procedure, shortened: as §1

[12] = tested on: giant foxtail (Setaria faberii); assay: Test A postemergence
Procedure, shortened: as §1

[13] = tested on: pigweed (Amaranthus retroflexus); assay: Test A postemergence
Procedure, shortened: as §1

[14] = tested on: ragweed (common ragweed, Ambrosia elatior); assay: Test A postemergence
Procedure, shortened: as §1

[15] = tested on: ryegrass, Italian (Italian ryegrass, Lolium multiflorum); assay: Test A postemergence
Procedure, shortened: as §1

[16] = tested on: wheat (Triticum aestivum); assay: Test A postemergence
Procedure, shortened: as §1

[17] = tested on: barnyardgrass (Echinochloa crus-galli); assay: Test B flooded paddy test; conditions: Flood, 250 g ai/ha; 0 to 100 scale where 0 is no effect and 100 is complete control; 13 to 15 d
Procedure, shortened: (§2)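 Greenhouse paddy pots with 2-leaf stage plants received compound by direct addition to floodwater 3 cm deep, kept at that level. Scored visually at 13–15 d versus controls (0 no effect; 100 complete control).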

[18] = tested on: ducksalad (Heteranthera limosa); assay: Test B flooded paddy test; conditions: Flood, 250 g ai/ha; 0 to 100 scale where 0 is no effect and 100 is complete control; 13 to 15 d
Procedure, shortened: as §2

[19] = tested on: rice (Oryra sativa); assay: Test B flooded paddy test; conditions: Flood, 250 g ai/ha; 0 to 100 scale where 0 is no effect and 100 is complete control; 13 to 15 d
Procedure, shortened: as §2

[20] = tested on: sedge, umbrella (small-flower umbrella sedge, Cyperus difformis); assay: Test B flooded paddy test; conditions: Flood, 250 g ai/ha; 0 to 100 scale where 0 is no effect and 100 is complete control; 13 to 15 d
Procedure, shortened: as §2

[21] = tested on: barnyardgrass (Echinochloa crus-galli); assay: Test C flooded paddy test; conditions: Flood; for Plant response rating (scale of 0 to 100), Barnyardgrass: 0 is no effect, 100 is complete control
Excerpt: (§3) Plant species in the flooded paddy test consisted of rice (Oryza sativa), sedge, umbrella (small-flower umbrella sedge, Cyperus difformis), ducksalad (Heteranthera limosa), and barnyardgrass (Echinochloa crus-galli) grown to the 2-leaf stage for testing. At time of treatment, test pots were flooded to 3 cm above the soil surface, treated by application of test compounds directly to the paddy water, and then maintained at that water depth for the duration of the test. Treated plants and controls were maintained in a greenhouse for 13 to 15 d, after which time all species were compared to controls and visually evaluated. Plant response ratings, summarized in Table C, are based on a scale of 0 to 100 where 0 is no effect and 100 is complete control. A dash (-) response means no test result.

[22] = tested on: ducksalad (Heteranthera limosa); assay: Test C flooded paddy test; conditions: Flood; for Plant response rating (scale of 0 to 100), Ducksalad: 0 is no effect, 100 is complete control
Excerpt: as §3

[23] = tested on: rice (Oryza sativa); assay: Test C flooded paddy test; conditions: Flood; for Plant response rating (scale of 0 to 100), Rice: 0 is no effect, 100 is complete control
Excerpt: as §3

[24] = tested on: sedge, umbrella (small-flower umbrella sedge, Cyperus difformis); assay: Test C flooded paddy test; conditions: Flood; for Plant response rating (scale of 0 to 100), Sedge, Umbrella: 0 is no effect, 100 is complete control
Excerpt: as §3

[25] = 125 g ai/ha, Preemergence, visual injury after approximately 10 d, 0 to 100 scale where 0 is no effect and 100 is complete control
[26] = Preemergence, 500 g ai/ha, visual injury approx. 10 d
[27] = 125 g ai/ha, postemergence, visual injury rating on 0 to 100 scale (0 no effect, 100 complete control), approx. 10 d
[28] = Postemergence, 500 g ai/ha, 0 to 100 scale where 0 is no effect and 100 is complete control
[29] = 500 g ai/ha, preemergence, 0 to 100 scale, 0 = no effect, 100 = complete control
[30] = 125 g ai/ha, postemergence, visual rating after approx. 10 d, 0 to 100 scale (0 no effect, 100 complete control)
[31] = 500 g ai/ha, postemergence, visual injury, 0 to 100 scale (0 no effect, 100 complete control), approx. 10 d
[32] = 31 g ai/ha, scale 0 to 100 (0 no effect, 100 complete control), 13 to 15 d

O=C1NCC(c2cccc(F)c2F)C1C(=O)Nc1cccc(F)c1F (centres unmarked) [Compound 487]
Plant response rating, Kochia [1, 25]: 30 | Kochia plant response rating (0 to 100 scale, 0 is no effect, 100 is complete control) [1, 26]: 60 | Plant response rating, Barnyardgrass [2, 25]: 90 | Barnyardgrass plant response rating (0 to 100 scale, 0 is no effect, 100 is complete control) [2, 26]: 90 | Plant response rating, Foxtail, Giant [3, 25]: 90 | Foxtail, Giant plant response rating (0 to 100 scale, 0 is no effect, 100 is complete control) [3, 26]: 90 | Plant response rating, Pigweed [4, 25]: 0 | Pigweed plant response rating (0 to 100 scale, 0 is no effect, 100 is complete control) [4, 26]: 30 | Plant response rating, Ragweed [5, 25]: 30 | Ragweed plant response rating (0 to 100 scale, 0 is no effect, 100 is complete control) [5, 26]: 30 | Plant response rating, Ryegrass, Italian [6, 25]: 20 | Ryegrass, Italian plant response rating (0 to 100 scale, 0 is no effect, 100 is complete control) [6, 26]: 40 | Galium plant response rating [7, 27]: 0 | Plant response rating, Galium [7, 28]: 0 | Kochia plant response rating [8, 27]: 0 | Plant response rating, Kochia [8, 28]: 30 | Barnyardgrass plant response rating [9, 27]: 80 | Plant response rating, Barnyardgrass [9, 28]: 90 | Blackgrass plant response rating [10, 27]: 0 | Plant response rating, Blackgrass [10, 28]: 30 | Corn plant response rating [11, 27]: 0 | Plant response rating, Corn [11, 28]: 20 | Foxtail, Giant plant response rating [12, 27]: 80 | Plant response rating, Foxtail, Giant [12, 28]: 90 | Pigweed plant response rating [13, 27]: 0 | Plant response rating, Pigweed [13, 28]: 20 | Ragweed plant response rating [14, 27]: 0 | Plant response rating, Ragweed [14, 28]: 0 | Ryegrass, Italian plant response rating [15, 27]: 0 | Plant response rating, Ryegrass, Italian [15, 28]: 20 | Wheat plant response rating [16, 27]: 0 | Plant response rating, Wheat [16, 28]: 20 | Plant response rating, Barnyardgrass [17]: 75 | Plant response rating, Ducksalad [18]: 95 | Plant response rating, Rice [19]: 0 | Plant response rating, Sedge, Umbrella [20]: 0 | Plant response rating (scale of 0 to 100), Barnyardgrass ([21]; 31 g ai/ha): 0 | Plant response rating (scale of 0 to 100), Barnyardgrass ([21]; 62 g ai/ha): 15 | Plant response rating (scale of 0 to 100), Barnyardgrass ([21]; 125 g ai/ha): 20 | Plant response rating (scale of 0 to 100), Barnyardgrass ([21]; 250 g ai/ha): 65 | Plant response rating (scale of 0 to 100), Ducksalad ([22]; 31 g ai/ha): 30 | Plant response rating (scale of 0 to 100), Ducksalad ([22]; 62 g ai/ha): 45 | Plant response rating (scale of 0 to 100), Ducksalad ([22]; 125 g ai/ha): 85 | Plant response rating (scale of 0 to 100), Ducksalad ([22]; 250 g ai/ha): 100 | Plant response rating (scale of 0 to 100), Rice ([23]; 31 g ai/ha): 0 | Plant response rating (scale of 0 to 100), Rice ([23]; 62 g ai/ha): 0 | Plant response rating (scale of 0 to 100), Rice ([23]; 125 g ai/ha): 0 | Plant response rating (scale of 0 to 100), Rice ([23]; 250 g ai/ha): 0 | Plant response rating (scale of 0 to 100), Sedge, Umbrella ([24]; 31 g ai/ha): 0 | Plant response rating (scale of 0 to 100), Sedge, Umbrella ([24]; 62 g ai/ha): 0 | Plant response rating (scale of 0 to 100), Sedge, Umbrella ([24]; 125 g ai/ha): 0 | Plant response rating (scale of 0 to 100), Sedge, Umbrella ([24]; 250 g ai/ha): 0

CN1CC(c2cc(F)cc(F)c2)C(C(=O)Nc2ccc(F)cc2F)C1=O (centres unmarked) [Compound 645]
Plant response rating, Kochia [1, 25]: 0 | Plant response rating, Kochia [1, 29]: 60 | Plant response rating, Barnyardgrass [2, 25]: 90 | Plant response rating, Barnyardgrass [2, 29]: 90 | Plant response rating, Foxtail, Giant [3, 25]: 90 | Plant response rating, Foxtail, Giant [3, 29]: 90 | Plant response rating, Pigweed [4, 25]: 0 | Plant response rating, Pigweed [4, 29]: 50 | Plant response rating, Ragweed [5, 25]: 0 | Plant response rating, Ragweed [5, 29]: 20 | Plant response rating, Ryegrass, Italian [6, 25]: 20 | Plant response rating, Ryegrass, Italian [6, 29]: 60 | Plant response rating, Galium [7, 30]: 50 | Plant response rating, Galium [7, 31]: 50 | Plant response rating, Kochia [8, 30]: 0 | Plant response rating, Kochia [8, 31]: 50 | Plant response rating, Barnyardgrass [9, 30]: 90 | Plant response rating, Barnyardgrass [9, 31]: 90 | Plant response rating, Blackgrass [10, 30]: 60 | Plant response rating, Blackgrass [10, 31]: 70 | Plant response rating, Corn [11, 30]: 20 | Plant response rating, Corn [11, 31]: 60 | Plant response rating, Foxtail, Giant [12, 30]: 90 | Plant response rating, Foxtail, Giant [12, 31]: 90 | Plant response rating, Pigweed [13, 30]: 0 | Plant response rating, Pigweed [13, 31]: 0 | Plant response rating, Ragweed [14, 30]: 10 | Plant response rating, Ragweed [14, 31]: 20 | Plant response rating, Ryegrass, Italian [15, 30]: 20 | Plant response rating, Ryegrass, Italian [15, 31]: 50 | Plant response rating, Wheat [16, 30]: 30 | Plant response rating, Wheat [16, 31]: 50 | Plant response rating, Barnyardgrass [17]: 80 | Plant response rating, Ducksalad [18]: 100 | Plant response rating, Rice [19]: 0 | Plant response rating, Sedge, Umbrella [20]: 0 | Plant response rating, Barnyardgrass [21, 32]: 30 | Plant response rating (scale of 0 to 100), Barnyardgrass ([21]; 62 g ai/ha): 40 | Plant response rating (scale of 0 to 100), Barnyardgrass ([21]; 125 g ai/ha): 65 | Plant response rating (scale of 0 to 100), Barnyardgrass ([21]; 250 g ai/ha): 75 | Plant response rating, Ducksalad [22, 32]: 30 | Plant response rating (scale of 0 to 100), Ducksalad ([22]; 62 g ai/ha): 60 | Plant response rating (scale of 0 to 100), Ducksalad ([22]; 125 g ai/ha): 80 | Plant response rating (scale of 0 to 100), Ducksalad ([22]; 250 g ai/ha): 95 | Plant response rating, Rice [23, 32]: 0 | Plant response rating (scale of 0 to 100), Rice ([23]; 62 g ai/ha): 0 | Plant response rating (scale of 0 to 100), Rice ([23]; 125 g ai/ha): 0 | Plant response rating (scale of 0 to 100), Rice ([23]; 250 g ai/ha): 0 | Plant response rating, Sedge, Umbrella [24, 32]: 0 | Plant response rating (scale of 0 to 100), Sedge, Umbrella ([24]; 62 g ai/ha): 0 | Plant response rating (scale of 0 to 100), Sedge, Umbrella ([24]; 125 g ai/ha): 0 | Plant response rating (scale of 0 to 100), Sedge, Umbrella ([24]; 250 g ai/ha): 0
